# Laboratory results from patent US9415023B2, “Compositions comprising terpene compounds for treating negative sensory phenomena” (NeuroQuest Inc., priority 2008, dated 2016).
# “Also recorded” adds a separate entry of the source.
# Legend:
# [1] = system: cortical neuron; assay: Perforated patch clamp electrophysiology of mouse brain slices; format: cell-based; settings: for membrane current (current-voltage relation): geraniol vs. control
# Description: Studies were conducted on mouse hippocampal brain slice preparations. In terms of the slice preparations, […] coronal brain slices were prepared from animals housed in a 12 hour light (ZT 0-12):12 hour dark (ZT 12-24) environment. Animals were anesthetized with isoflurane, decapitated, the brain rapidly removed and placed in ice cold, oxygenated (95% 02:5% C02), bicarbonate-buffered artificial cerebral spinal fluid (ACSF). A 1 cm^2 block of brain tissue containing the hippocampi was glued to a cutting surface and coronal slices were prepared using a Leica VT1000S microtome (Leica Microsystems). All slices were left to equilibrate for approximately one hour prior to the transfer to a recording chamber. Once transferred to the chamber, slices were continuously superfused with oxygenated ACSF at a rate of 3 ml/min @30° C. and recordings are generally made for the next 6-12 hours. Patch microelectrodes (5-8 MΩ) made from borosilicate glass (Garner Glass Co.) and filled with K^+ based internal patch solution composed of: (in mM) 120 K-acetate, 40 HEPES, 10 EGTA, 6 MgCl2, nystatin (450 μg/ml) or gramicidin B (5 μg/ml) and pluronic acid F127.
# The perforated patch recording technique and will be used (Korn & Horn, 1989) and viable Hippocampal neurons were visually targeted using Infrared Differential Interference Contrast (IR-DIC) microscopy using a Leica DM LFSA scope. […] Recordings were made from 3 different patch rigs equipped with either […] patch clamp amplifiers interfaced via a Digidata 1322A to a PC computer or on, in terms of the studies performed on dissociated DRG neurons, a Zeiss Axoscop 200 inverted microscope equipped with an Axopatch 200B/Digidata 1322A using Pclamp 9.0 and Axoscope 9 software.
# Test compounds were bath-applied by superfusion to examine for changes in excitability and/or attenuation of ion channels and the effects of compounds on evoked synaptic responses. Stimulating electrodes (concentric or bipolar) were placed within the slices and in accordance with the well known fiber tract pathways of passage for the DH and the hippocampus.
# [2] = Subject-reported relief of numbness and pain after topical application (case studies); format: in vivo, human
# Description: (§1) A natural blend of geranium oil and other essential oils (Table 1) was also tested in a panel of human neuropathic pain sufferers, some of whom experienced negative sensory phenomena. […] The geranium oil blend or geraniol was topically applied in therapeutically effective amounts to areas of the human body affected with symptoms of negative sensory symptoms. Dosage amount depended on the size of the patient's affected areas. […] Once administered, a typical positive response was reported typically within minutes.
# [3] = Nylon filament test of sensation after topical application (case studies); format: in vivo, human
# Description: as §1
# 7, 2008 and complained of numbness on the soles of their feet. Their sensation was tested with a nylon filament and the patient could not feel the filament on the ball of either foot. Geraniol was applied to the ball of one foot. After approximately 5 minutes the feet were retested with the nylon filament. The foot that had not been treated still could not detect the touch of the filament.
# They could not feel a nylon filament used to test sensation on the bottom of either foot. They had geraniol applied to the left foot and the sensation was retested after 5 minutes. […] The patient was given geraniol to use on the left foot every other day.
smiles,measurement,setting,value
"CC(C)=CCC/C(C)=C/CO [geraniol, 2,6-Octadien-1-ol, 3,7-dimethyl-, (2E)-]",action potentials during current-voltage steps,"[1]; 10 mV steps (250 ms) from -110 to -20 mV, in presence of compound",inhibition of action potentials
same,membrane current (current-voltage relation),[1]; 10 mV steps (250 ms) from -110 to -20 mV,reduction in the membrane current amplitude; also recorded: reduction of membrane currents
same,membrane current (current-voltage relation),"[1]; 10 mV steps (250 ms) from -110 to -20 mV, listed as Geraniol",reduction of membrane currents
same,action potential following depolarizing current pulse,[1]; depolarizing current pulse of 0.4 nA,inhibition of action potential
same,net current reduction (current differential between control and tested compound),"[1]; most negative voltage step (-110 mV), FIG. 3, ranking among samples",greatest inhibition
same,"numbness / negative sensory phenomena, subject-reported",[2],improvements seen in subjectively reported symptoms
same,feeling in treated foot vs untreated foot,"[3]; topical every other day, over 2 week period",continued to have more feeling than the right foot
same,sensation tested with nylon filament on treated foot,"[3]; topical, retested after approximately 5 minutes, untreated foot as comparison",improvements in sensory functioning; also recorded: able to feel the nylon filament; also recorded: could detect feeling with a nylon filament
